The nature of the data set: High temperature and illumination stability test of crystal forms 1-3. Type of data set: physicochemical. Conditions: Illumination (illuminance: 5000Lx), Day 0 (Table 18-1).

The source of these data is US20240376138A1, “Crystal Forms, Preparation Method And Application Of Aryl Phosphine Oxide Compound” (Chengdu Di'Ao Jiuhong Pharmaceutical Factory, priority 2021, published 2024).

The structures appear in SMILES notation.

As to `COc1cc(N2CCC(N3CCN(C)CC3)CC2)c(C)cc1Nc1ncc(Br)c(Nc2ccc(C)cc2P(C)(C)=O)n1` [Crystal form 1, (2-((5-bromo-2-((2-methoxy-5-methyl-4-(4-(4-methylpiperazin-1-yl)piperidin-1-yl)phenyl)amino)pyrimidin-4-yl)amino)-5-methylphenyl)dimethylphosphorus oxide dihydrate], the Traits entry is recorded as “off-white”.
